Assay [1] has as its system LPS-induced lethality in mice. To be noted: cited from earlier work.
Assay [2] has as its target T1, human recombinant MMP-13 catalytic domain (Homo sapiens, UniProt P45452).
T1 construct: a panel of ten human recombinant MMP catalytic domains; purchased Enzo Life Sciences BML-AK016
The assay is described as follows: Recombinant MMP fluorescent assay kit (OmniMMP substrate). The assay is classed as biochemical. How it is done: (§1) The specificity of the synthesized inhibitor was determined in vitro against a panel of ten human recombinant MMP catalytic domains using a fluorescent assay kit (BML-AK016, Enzo Life Sciences). Briefly, the compound was dissolved in dimethyl sulfoxide (DMSO) and further diluted in assay buffer (50 mM HEPES, 10 mM CaCl2, 0.05% Brij-35, and pH 7.5). Ten MMPs (MMP-1, MMP-2, MMP-3, MMP-7, MMP-8, MMP-9, MMP-10, MMP-12, MMP-13, and MMP-14) were individually incubated with varying concentrations of inhibitor for one hour at 37°C, followed by addition of a quenched fluorogenic substrate (OmniMMP fluorogenic substrate Mca-Pro-Leu-Gly-Leu-Dpa-Ala-Arg-NH2 [Mca is (7-methoxycoumarin-4-yl)-acetyl; Dpa is N-3-(2,4-dinitrophenyl)-L-α-β-diaminopropionyl], 4 μM in assay). […] After each fluorescent measurement the well plates were shaken for 2 sec to agitate the reagents. In each experiment we included a blank, a substrate control (substrate only in assay buffer), a positive control (NNGH, 1.3 μM final concentration), and negative control (only substrate and inhibitor in assay buffer). The latter was implemented to exclude possible interference of the inhibitor with the substrate. […] The IC50 values were determined in a single experimental run in duplicate. Data analysis and curve fitting for determination of IC50 values were performed in GraphPad Prism 6.

The target in assay [3] is T2, human recombinant MMP-1 catalytic domain (Homo sapiens, UniProt P03956).
T2 construct: a panel of ten human recombinant MMP catalytic domains; purchased Enzo Life Sciences BML-AK016
T2 sequence (P03956 100-269 limits assumed): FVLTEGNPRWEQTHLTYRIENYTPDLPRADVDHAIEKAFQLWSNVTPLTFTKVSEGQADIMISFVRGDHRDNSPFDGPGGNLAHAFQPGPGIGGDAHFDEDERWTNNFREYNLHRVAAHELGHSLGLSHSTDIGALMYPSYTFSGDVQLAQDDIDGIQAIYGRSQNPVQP
The assay is described as above. The assay is classed as biochemical. The procedure: as §1

Assay [4] concerns the target T3, human recombinant MMP-3 catalytic domain (Homo sapiens, UniProt P08254).
T3 construct: a panel of ten human recombinant MMP catalytic domains; purchased Enzo Life Sciences BML-AK016
The description is as above. The assay is classed as biochemical. The procedure:
as §1

Assay [5] has as its target T4, human recombinant MMP-7 catalytic domain (Homo sapiens, UniProt P09237).
T4 construct: a panel of ten human recombinant MMP catalytic domains; purchased Enzo Life Sciences BML-AK016
T4 sequence (P09237 95-267): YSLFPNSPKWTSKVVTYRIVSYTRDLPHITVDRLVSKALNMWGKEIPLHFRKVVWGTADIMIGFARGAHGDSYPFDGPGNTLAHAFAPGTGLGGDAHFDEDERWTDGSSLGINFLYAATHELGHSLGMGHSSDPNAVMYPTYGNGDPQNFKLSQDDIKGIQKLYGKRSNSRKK
The assay is described as above. The assay is classed as biochemical. How it is done:
as §1

Assay [6] has as its target T5, human recombinant MMP-2 catalytic domain (Homo sapiens, UniProt P08253).
T5 construct: a panel of ten human recombinant MMP catalytic domains; purchased Enzo Life Sciences BML-AK016
The assay is described as above. In kind it is biochemical. The procedure:
as §1

Assay [7] concerns the target T6, human recombinant MMP-9 catalytic domain (Homo sapiens, UniProt P14780).
T6 construct: a panel of ten human recombinant MMP catalytic domains; purchased Enzo Life Sciences BML-AK016
The assay is described as above. In kind it is biochemical. The procedure: as §1

The target in assay [8] is T7, human recombinant MMP-8 catalytic domain (Homo sapiens, UniProt P22894).
T7 construct: a panel of ten human recombinant MMP catalytic domains; purchased Enzo Life Sciences BML-AK016
The assay is described as above. In kind it is biochemical. The procedure:
as §1

Assay [9] deals with T8, human recombinant MMP-10 catalytic domain (Homo sapiens, UniProt P09238).
T8 construct: a panel of ten human recombinant MMP catalytic domains; purchased Enzo Life Sciences BML-AK016
The assay is described as above. The assay is classed as biochemical. How it is done: as §1

The target in assay [10] is T9, human recombinant MMP-14 catalytic domain (Homo sapiens, UniProt P50281).
T9 construct: a panel of ten human recombinant MMP catalytic domains; purchased Enzo Life Sciences BML-AK016
Described as above. In kind it is biochemical. How it is done:
as §1

For assay [11], the target named is T10, human recombinant MMP-12 catalytic domain (Homo sapiens, UniProt P39900).
T10 construct: human recombinant MMP-3 (72006, AnaSpec) and MMP-12 catalytic domains (55525-1, AnaSpec); purchased AnaSpec 55525-1
Briefly: Recombinant MMP fluorescent assay kit (OmniMMP substrate), initial screen. In kind it is biochemical. To be noted: pH 7.5, 1 h incubation at 37°C, OmniMMP substrate 4 μM, read-out: apparent IC50 MMP-12 (initial screen). How it is done: as §1

In assay [12] the test system is LPS-induced lethality in C57BL/6 mice. The assay is described as follows: Endotoxemia model: survival after lethal LPS challenge. To be noted: 100 μg i.p. 15 min before and 3 and 6 h after LPS 200 μg/20 g i.p. (LD100), log-rank test. In kind it is in vivo, mouse. The text has this:
Female C57BL/6J (8–10 weeks old) mice were purchased from Janvier Labs (France) and MMP-12 knockout mice (MMP-12^−/−) (in C57BL/6J background together with littermate MMP-12^+/+ controls) were obtained from Dr. Steven Shapiro (University of Pittsburgh, USA). C57BL/6 and MMP-12^−/− mice were housed with 4–6 mice/cage with ad libitum access to food and water and with a 14-hour light/10-hour dark cycle in a specific pathogen-free animal facility and conventional facility, respectively. All experiments were approved by the Ethics Committee of the Faculty of Sciences of Ghent University.
Endotoxemia was induced by intraperitoneal (i.p.) injection of lipopolysaccharide (LPS) from Salmonella enterica serotype abortus equi (Sigma) dissolved in PBS. […] Control animals received i.p. injections of PBS. Rectal temperature was measured periodically after challenge. 100 μg MMP-12i (1 μg/μL) or vehicle control was administered intraperitoneally at different time points: 15 min before and 3 and 6 hours after LPS administration.

Assay [13] addresses T10, human recombinant MMP-12 catalytic domain. Briefly: Detailed dose-response with Substrate XIII (AnaSpec) quenched fluorescent substrate. The assay is classed as biochemical. The procedure: […] Briefly, the compound was dissolved in dimethyl sulfoxide (DMSO) and further diluted in assay buffer (50 mM HEPES, 10 mM CaCl2, 0.05% Brij-35, and pH 7.5). […] In each experiment we included a blank, a substrate control (substrate only in assay buffer), a positive control (NNGH, 1.3 μM final concentration), and negative control (only substrate and inhibitor in assay buffer). The latter was implemented to exclude possible interference of the inhibitor with the substrate. […] The IC50 values were determined in a single experimental run in duplicate. Data analysis and curve fitting for determination of IC50 values were performed in GraphPad Prism 6.

Assay [14] deals with primary mouse choroid plexus epithelial cells. The assay is described as follows: Blood-CSF barrier permeability in vitro (ECIS impedance). In kind it is cell-based. To be noted: 1 μM inhibitor 1 hour before LPS 1000 ng/mL; n = 3. How it is done:
Culturing primary mouse choroid plexus epithelial cells was done as described. In brief, 2–9-day-old pups were decapitated and brains were isolated. Choroid plexuses from all four ventricles were isolated under a dissection microscope. The cells were dissociated enzymatically by incubating them for 5–7 min with pronase (isolated from Streptomyces griseus, Sigma). Digestion was stopped by adding an excess of HBSS buffer and the cells were washed twice with HBSS. The cell pellet was resuspended in DMEM-F12 culture medium and plated on laminin-coated plates. Two days later, they were shifted to DMEM-F12 containing cytosine arabinoside (Ara-C) to eliminate growth of fibroblasts. Cultures were maintained at 37°C in 5% CO2. Purity of the cultures was confirmed by checking the levels of transthyretin (TTR) both by qPCR and by immunostaining. Primary CPE cells retained the epithelial and the barrier properties which were confirmed by staining for E-cadherin, ZO-1, and occludin. The electric cell-substrate impedance (ECIS) technique (Applied Biophysics) was used to monitor barrier properties as described before. 250.000 cells per well were seeded onto laminin-coated 8W10E array plates (Applied Biophysics) and the array holder was placed in a standard cell culture incubator (37°C, 100% humidity, and 5% CO2). Array plates were connected to the instrument and multifrequency measurements were started. […]

T10 sequence (P39900 106-263 limits assumed): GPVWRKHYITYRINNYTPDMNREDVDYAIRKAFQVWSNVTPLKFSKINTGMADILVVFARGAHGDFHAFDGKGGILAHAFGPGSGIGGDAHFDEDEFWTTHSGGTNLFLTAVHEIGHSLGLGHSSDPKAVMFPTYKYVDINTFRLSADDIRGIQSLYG
T3 sequence (P08254 100-272 limits assumed): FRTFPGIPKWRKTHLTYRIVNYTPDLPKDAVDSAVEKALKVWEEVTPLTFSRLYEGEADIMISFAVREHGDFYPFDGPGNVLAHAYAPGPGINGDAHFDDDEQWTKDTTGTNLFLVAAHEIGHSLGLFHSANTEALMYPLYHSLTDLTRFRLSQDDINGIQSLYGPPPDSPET
T8 sequence (P09238 99-263 limits assumed): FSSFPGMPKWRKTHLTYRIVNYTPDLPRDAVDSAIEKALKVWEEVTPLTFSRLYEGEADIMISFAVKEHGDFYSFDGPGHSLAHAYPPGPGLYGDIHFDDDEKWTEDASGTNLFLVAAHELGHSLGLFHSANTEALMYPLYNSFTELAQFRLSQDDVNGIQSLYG
T7 sequence (P22894 100-262 limits assumed): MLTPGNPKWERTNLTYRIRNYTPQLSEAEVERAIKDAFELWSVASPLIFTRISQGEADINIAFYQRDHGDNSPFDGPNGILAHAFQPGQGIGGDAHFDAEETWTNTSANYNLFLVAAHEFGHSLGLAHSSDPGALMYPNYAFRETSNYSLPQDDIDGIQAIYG
T5 sequence (P08253 110-446 limits assumed): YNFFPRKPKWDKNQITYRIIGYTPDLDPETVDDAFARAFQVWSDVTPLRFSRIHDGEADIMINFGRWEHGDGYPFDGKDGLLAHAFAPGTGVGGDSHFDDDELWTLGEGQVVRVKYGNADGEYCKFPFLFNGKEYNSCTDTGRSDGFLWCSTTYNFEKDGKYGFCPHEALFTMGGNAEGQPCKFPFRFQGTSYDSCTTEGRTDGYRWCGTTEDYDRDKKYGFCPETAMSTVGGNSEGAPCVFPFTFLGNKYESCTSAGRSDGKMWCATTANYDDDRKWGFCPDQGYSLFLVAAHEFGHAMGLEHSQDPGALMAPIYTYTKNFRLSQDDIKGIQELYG
T6 sequence (P14780 107-444 limits assumed): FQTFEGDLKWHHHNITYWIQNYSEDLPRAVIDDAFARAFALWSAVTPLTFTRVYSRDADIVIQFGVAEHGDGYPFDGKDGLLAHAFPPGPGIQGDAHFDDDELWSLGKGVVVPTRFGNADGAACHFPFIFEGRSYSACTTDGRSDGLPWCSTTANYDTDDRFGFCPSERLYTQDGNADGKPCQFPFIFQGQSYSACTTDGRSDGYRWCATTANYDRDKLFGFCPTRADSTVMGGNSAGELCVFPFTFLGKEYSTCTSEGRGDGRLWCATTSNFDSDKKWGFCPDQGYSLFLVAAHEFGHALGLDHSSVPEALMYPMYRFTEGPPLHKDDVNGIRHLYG

`CNC(=O)[C@H](Cc1ccccc1)NC(=O)[C@H](CC(C)C)[C@H](CSc1cccs1)C(=O)NO` [BB-94]: the “protection from LPS-induced lethality” value in assay [1] is listed as “protected from LPS-induced lethality”.
One may read the IC50 as the midpoint of a concentration-inhibition curve. As for `Cc1cc(=O)c(O)c(C(=O)NCc2ccc(-c3ccc(-c4ccccc4)cc3)cc2)o1` [Compound 9, N-([1,1′:4′,1′′-Terphenyl]-4-ylmethyl)-3-hydroxy-6-methyl-4-oxo-4H-pyran-2-carboxamide], the half-maximal inhibitory concentration (IC50) is above 50 µM in assay [2]; above 50 µM in assay [3]; above 50 µM in [4]; above 50 µM in [5]; 2 to 50 µM in assay [6]; above 50 µM in assay [7]. In addition, the IC50 in [8] is 2 to 50 µM; in assay [9], above 50 µM; in [10], 2 to 50 µM; in [11], below 2 µM; in assay [13] (Figure 1(c) fitted dose-response curve, read-out: log(IC50) MMP-12 (converted)), 0.177 µM; in assay [13] (Substrate XIII (AnaSpec), nonlinear regression of dose-response curve, read-out: relative IC50 MMP-12) it was 0.177 µM. For the same compound, the “LPS-induced lethality (survival) vs vehicle” value in assay [12] is given as “significant reduction in LPS-induced lethality”. For the same compound, the “inhibitory plateau at higher inhibitor concentrations, MMP-12” value in assay [13] (Substrate XIII (AnaSpec), nonlinear regression) stood at 72 ± 1.75%. For the same compound, in [14], the “LPS-induced drop in normalized resistance (ECIS, low frequency)” value is “significantly reduced”.
